Experimental data taken from ChEMBL document CHEMBL5465560, “Selectivity Literature for EUbOPEN Chemogenomic Library” (2024).

Legend:
Melanocortin receptor 3 = Melanocortin receptor 3 (Homo sapiens, UniProt P41968); assay: Selectivity interaction (Melanocortin MC3 receptor binding assay, human recombinant ) EUB0000877a MC3R
[1] = molecular target: LIM domain kinase 1 (Homo sapiens) (UniProt P53667); assay: Selectivity interaction (KinomeScan (DiscoverX)) EUB0000607a LIMK1; settings: at 10 µM
[2] = test system: Hepatocyte growth factor receptor (Homo sapiens), P08581 [Y1235D]; assay: (§1) Selectivity interaction (KinomeScan (DiscoverX)) EUB0000607a MET; settings: at 10 µM
[3] = molecular target: Hepatocyte growth factor receptor (Homo sapiens, UniProt P08581); assay: as §1; settings: at 10 µM
[4] = test system: Hepatocyte growth factor receptor (Homo sapiens), P08581 [M1250T]; assay: as §1; settings: at 10 µM
[5] = molecular target: Serine/threonine-protein kinase WNK3 (Homo sapiens) (UniProt Q9BYP7); assay: Selectivity interaction (KinomeScan (DiscoverX)) EUB0000607a WNK3; settings: at 10 µM
[6] = molecular target: Vascular endothelial growth factor receptor 2 (Homo sapiens, UniProt P35968); assay: Selectivity interaction (KinomeScan (DiscoverX)) EUB0000699a KDR; settings: at 10 µM
[7] = molecular target: Serine/threonine-protein kinase PLK1 (Homo sapiens, UniProt P53350); assay: Selectivity interaction (ActivX KiNativ screen (kinase selectivity in THP-1 cell lysates)) EUB0000639a PLK1; type: subcellular; settings: lysate
[8] = molecular target: Tyrosine-protein kinase JAK1 (Homo sapiens, UniProt P23458); assay: Selectivity interaction (ActivX KiNativ screen (kinase selectivity in THP-1 cell lysates)) EUB0000639a JAK1; type: subcellular; settings: lysate, at 0.2 µM
[9] = molecular target: T1, Testis-specific serine/threonine-protein kinase 2 (Homo sapiens) (UniProt Q96PF2); assay: Selectivity interaction (Kinase panel (Invitrogen)) EUB0000639a TSSK2; settings: at 200 nM
T1 sequence (whole entry): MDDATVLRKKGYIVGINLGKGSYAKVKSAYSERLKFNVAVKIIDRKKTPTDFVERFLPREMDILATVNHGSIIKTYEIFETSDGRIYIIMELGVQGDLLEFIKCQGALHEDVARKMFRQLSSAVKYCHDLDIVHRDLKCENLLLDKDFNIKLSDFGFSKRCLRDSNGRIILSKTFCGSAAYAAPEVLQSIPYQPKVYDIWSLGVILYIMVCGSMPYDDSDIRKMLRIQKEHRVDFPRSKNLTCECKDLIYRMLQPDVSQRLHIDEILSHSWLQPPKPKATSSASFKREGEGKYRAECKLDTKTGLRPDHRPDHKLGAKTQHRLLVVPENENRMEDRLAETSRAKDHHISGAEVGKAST

[10] = molecular target: Calcium/calmodulin-dependent protein kinase kinase 1 (Homo sapiens) (UniProt Q8N5S9); assay: Selectivity interaction (ProQinase) EUB0000171b CAMKK1
[11] = molecular target: Platelet-derived growth factor receptor beta (Homo sapiens, UniProt P09619); assay: Selectivity interaction (KinomeScan (DiscoverX)) EUB0000695a PDGFRB; settings: at 100 nM
[12] = molecular target: Calcium/calmodulin-dependent protein kinase type 1 (Homo sapiens) (UniProt Q14012); assay: Selectivity interaction (KinomeScan (DiscoverX)) EUB0001049a CAMK1; settings: at 1 µM
[13] = molecular target: Death-associated protein kinase 2 (Homo sapiens) (UniProt Q9UIK4); assay: Selectivity interaction (KinomeScan (DiscoverX)) EUB0001049a DAPK2; settings: at 1 µM
[14] = molecular target: T2, Aurora kinase A (Homo sapiens) (UniProt O14965); assay: Selectivity interaction (Kinase panel (DSF assay)) EUB0001558a STK6
T2 sequence (whole entry): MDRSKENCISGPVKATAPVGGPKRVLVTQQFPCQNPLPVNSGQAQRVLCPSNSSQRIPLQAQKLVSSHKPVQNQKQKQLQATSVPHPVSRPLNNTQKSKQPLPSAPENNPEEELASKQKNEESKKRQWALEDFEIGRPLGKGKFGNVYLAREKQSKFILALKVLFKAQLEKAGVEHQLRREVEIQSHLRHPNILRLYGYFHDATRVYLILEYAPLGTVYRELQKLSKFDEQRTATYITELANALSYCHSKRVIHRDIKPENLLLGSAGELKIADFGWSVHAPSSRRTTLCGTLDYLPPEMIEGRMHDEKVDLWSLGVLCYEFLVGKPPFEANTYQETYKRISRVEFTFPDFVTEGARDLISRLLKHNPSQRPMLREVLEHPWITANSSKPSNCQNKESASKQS

[15] = molecular target: Serine/threonine-protein kinase PAK 6 (Homo sapiens) (UniProt Q9NQU5); assay: Selectivity interaction (KinomeScan (DiscoverX)) EUB0000045b PAK6; settings: at 1 µM
[16] = molecular target: Mitogen-activated protein kinase 3 (Homo sapiens, UniProt P27361); assay: Selectivity interaction (Kinase panel (KiNativ target engagement assay in Jurkat cells)) EUB0001635a MAPK3; type: cell-based; settings: Selectivity number of off-targets 0.0, Selectivity number of targets 233.0, Source Knowledge https://www.sciencedirect.com/science/article/pii/S2451945619300674?via%3Dihub, at 1 µM
[17] = molecular target: Protein polybromo-1 (Homo sapiens) (UniProt Q86U86); assay: Selectivity interaction (Bromodomain panel (DSF asssay)) EUB0000270b PBRM1
[18] = molecular target: Fibroblast growth factor receptor 4 (Homo sapiens, UniProt P22455); assay: Selectivity interaction (KinomeScan (DiscoverX)) EUB0000229b FGFR4; settings: at 10 µM
[19] = molecular target: Citron Rho-interacting kinase (Homo sapiens) (UniProt O14578); assay: Selectivity interaction (KinomeScan (DiscoverX)) EUB0000092b CIT; settings: at 10 µM
[20] = molecular target: Tyrosine-protein kinase Blk (Homo sapiens) (UniProt P51451); settings: at 10 µM
[21] = molecular target: Tyrosine-protein kinase Fes/Fps (Homo sapiens) (UniProt P07332); settings: at 10 µM
[22] = molecular target: cAMP-dependent protein kinase catalytic subunit alpha (Homo sapiens, UniProt P17612); assay: Selectivity interaction (KinomeScan (DiscoverX)) EUB0000618a PRKACA; settings: at 10 µM
[23] = molecular target: Serine/threonine-protein kinase N2 (Homo sapiens, UniProt Q16513); assay: Selectivity interaction (KinomeScan (DiscoverX)) EUB0001619a PKN2; settings: at 1 µM
Sequence of Serine/threonine-protein kinase N2 (Q16513 whole entry, looked up): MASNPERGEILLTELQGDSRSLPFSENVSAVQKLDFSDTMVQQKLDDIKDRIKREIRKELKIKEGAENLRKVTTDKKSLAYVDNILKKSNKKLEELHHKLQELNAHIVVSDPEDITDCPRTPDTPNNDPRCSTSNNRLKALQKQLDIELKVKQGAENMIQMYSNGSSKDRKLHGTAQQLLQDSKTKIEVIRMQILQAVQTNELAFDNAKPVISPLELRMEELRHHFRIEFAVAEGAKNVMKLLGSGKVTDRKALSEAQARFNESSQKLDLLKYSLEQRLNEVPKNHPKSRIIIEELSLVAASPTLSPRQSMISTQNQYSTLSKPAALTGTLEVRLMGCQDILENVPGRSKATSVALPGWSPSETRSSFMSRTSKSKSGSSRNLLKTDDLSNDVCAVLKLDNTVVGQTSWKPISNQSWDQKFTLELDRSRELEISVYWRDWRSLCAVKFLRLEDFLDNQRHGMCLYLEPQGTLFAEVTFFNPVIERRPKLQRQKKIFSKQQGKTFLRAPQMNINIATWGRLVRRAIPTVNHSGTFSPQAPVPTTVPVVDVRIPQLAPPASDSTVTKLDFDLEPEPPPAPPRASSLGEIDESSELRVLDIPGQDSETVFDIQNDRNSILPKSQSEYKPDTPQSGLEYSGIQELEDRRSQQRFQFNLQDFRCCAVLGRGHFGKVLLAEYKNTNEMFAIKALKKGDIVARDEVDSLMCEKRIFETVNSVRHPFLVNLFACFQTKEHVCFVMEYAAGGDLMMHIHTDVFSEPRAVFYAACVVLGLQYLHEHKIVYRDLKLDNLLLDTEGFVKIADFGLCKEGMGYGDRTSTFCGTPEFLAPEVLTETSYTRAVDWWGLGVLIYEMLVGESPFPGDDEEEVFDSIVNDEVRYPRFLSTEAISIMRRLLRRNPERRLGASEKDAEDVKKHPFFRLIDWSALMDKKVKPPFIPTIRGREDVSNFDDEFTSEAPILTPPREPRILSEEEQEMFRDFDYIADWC

Sequence of Serine/threonine-protein kinase PLK1 (P53350 whole entry): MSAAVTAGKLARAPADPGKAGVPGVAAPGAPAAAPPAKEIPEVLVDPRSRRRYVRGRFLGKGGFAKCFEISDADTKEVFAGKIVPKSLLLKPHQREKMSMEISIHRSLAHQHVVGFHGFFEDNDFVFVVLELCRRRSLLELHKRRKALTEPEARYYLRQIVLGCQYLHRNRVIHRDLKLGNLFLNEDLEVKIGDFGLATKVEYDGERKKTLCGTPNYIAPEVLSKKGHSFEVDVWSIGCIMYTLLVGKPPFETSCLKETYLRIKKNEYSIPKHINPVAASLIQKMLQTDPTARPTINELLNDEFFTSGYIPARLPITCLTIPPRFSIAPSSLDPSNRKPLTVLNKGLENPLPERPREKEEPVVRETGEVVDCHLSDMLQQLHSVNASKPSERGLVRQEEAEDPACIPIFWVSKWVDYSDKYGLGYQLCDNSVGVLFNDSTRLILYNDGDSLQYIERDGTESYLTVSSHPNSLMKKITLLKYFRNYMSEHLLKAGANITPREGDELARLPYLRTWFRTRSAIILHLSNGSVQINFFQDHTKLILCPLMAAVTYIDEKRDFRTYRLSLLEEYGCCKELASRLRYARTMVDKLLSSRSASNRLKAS
Sequence of Calcium/calmodulin-dependent protein kinase kinase 1 (Homo sapiens) (Q8N5S9 whole entry, looked up): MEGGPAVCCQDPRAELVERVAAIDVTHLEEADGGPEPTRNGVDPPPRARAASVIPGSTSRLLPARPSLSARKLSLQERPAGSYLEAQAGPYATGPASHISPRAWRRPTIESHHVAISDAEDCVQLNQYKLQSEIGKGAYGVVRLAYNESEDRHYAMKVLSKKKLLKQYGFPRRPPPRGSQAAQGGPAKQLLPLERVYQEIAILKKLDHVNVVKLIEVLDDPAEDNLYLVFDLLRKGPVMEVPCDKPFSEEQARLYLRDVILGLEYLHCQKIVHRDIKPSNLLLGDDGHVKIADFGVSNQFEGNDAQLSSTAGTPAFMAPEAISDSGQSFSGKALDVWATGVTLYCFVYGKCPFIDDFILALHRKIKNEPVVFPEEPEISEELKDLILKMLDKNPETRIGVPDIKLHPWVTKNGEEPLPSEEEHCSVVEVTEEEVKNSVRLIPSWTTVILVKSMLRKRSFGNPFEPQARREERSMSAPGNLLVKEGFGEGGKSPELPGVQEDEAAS
Sequence of Tyrosine-protein kinase Fes/Fps (Homo sapiens) (P07332 whole entry): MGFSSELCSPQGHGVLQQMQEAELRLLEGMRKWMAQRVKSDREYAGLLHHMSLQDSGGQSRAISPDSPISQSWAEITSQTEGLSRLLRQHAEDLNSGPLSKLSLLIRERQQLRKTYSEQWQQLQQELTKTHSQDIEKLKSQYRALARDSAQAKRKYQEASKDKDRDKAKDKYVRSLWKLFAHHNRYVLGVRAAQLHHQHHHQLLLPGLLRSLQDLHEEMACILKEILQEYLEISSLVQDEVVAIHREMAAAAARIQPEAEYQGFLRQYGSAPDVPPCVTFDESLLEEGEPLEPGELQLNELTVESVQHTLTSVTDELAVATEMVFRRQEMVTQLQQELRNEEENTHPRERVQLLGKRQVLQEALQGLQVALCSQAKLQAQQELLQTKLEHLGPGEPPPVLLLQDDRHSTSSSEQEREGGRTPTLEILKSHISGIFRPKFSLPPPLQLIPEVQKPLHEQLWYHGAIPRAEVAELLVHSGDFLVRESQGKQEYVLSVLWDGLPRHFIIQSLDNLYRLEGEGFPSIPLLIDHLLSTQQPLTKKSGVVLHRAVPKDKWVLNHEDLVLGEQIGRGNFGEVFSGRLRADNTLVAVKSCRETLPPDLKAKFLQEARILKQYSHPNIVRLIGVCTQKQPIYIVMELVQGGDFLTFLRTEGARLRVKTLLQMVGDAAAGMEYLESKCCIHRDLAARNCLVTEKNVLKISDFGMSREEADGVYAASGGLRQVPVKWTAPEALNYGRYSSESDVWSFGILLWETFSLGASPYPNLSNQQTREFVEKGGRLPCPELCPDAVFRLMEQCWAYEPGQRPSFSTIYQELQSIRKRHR
Sequence of Hepatocyte growth factor receptor (Homo sapiens), P08581 [M1250T] (P08581 whole entry M1250T): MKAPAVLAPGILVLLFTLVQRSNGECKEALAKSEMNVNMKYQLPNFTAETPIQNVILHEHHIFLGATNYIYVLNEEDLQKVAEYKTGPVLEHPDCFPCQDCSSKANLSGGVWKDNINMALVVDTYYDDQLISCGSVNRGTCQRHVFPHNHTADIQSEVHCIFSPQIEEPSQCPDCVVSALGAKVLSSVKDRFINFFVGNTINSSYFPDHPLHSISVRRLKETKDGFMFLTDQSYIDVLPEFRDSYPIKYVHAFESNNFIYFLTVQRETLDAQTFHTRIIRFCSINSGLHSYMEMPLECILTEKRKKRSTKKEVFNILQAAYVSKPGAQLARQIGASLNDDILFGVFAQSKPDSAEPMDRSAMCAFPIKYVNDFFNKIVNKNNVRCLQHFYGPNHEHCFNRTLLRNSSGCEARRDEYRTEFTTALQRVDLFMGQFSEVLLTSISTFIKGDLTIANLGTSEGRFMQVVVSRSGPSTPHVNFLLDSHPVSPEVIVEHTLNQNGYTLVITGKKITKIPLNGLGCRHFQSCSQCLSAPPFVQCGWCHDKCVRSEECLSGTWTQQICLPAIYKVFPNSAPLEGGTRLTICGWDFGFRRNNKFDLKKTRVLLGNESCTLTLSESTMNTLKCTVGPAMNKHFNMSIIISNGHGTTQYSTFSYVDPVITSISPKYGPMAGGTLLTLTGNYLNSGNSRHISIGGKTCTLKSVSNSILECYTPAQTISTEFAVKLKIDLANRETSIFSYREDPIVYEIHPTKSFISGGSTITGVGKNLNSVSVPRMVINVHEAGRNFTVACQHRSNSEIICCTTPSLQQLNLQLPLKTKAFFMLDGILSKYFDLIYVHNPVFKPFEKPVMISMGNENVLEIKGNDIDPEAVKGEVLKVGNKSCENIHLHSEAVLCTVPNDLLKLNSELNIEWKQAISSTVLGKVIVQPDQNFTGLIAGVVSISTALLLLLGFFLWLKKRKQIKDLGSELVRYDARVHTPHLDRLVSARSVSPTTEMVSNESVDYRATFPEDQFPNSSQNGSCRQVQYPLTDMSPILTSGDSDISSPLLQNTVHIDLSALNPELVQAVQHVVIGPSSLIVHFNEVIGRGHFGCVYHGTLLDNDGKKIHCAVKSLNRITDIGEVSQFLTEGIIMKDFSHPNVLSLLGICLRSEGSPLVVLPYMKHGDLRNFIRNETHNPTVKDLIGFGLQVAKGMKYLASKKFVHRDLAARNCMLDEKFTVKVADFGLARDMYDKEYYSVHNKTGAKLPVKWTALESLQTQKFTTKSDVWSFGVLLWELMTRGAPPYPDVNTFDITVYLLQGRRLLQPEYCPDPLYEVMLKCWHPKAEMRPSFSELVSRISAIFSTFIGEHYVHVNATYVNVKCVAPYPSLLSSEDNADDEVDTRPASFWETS
Sequence of Serine/threonine-protein kinase PAK 6 (Homo sapiens) (Q9NQU5 whole entry, looked up): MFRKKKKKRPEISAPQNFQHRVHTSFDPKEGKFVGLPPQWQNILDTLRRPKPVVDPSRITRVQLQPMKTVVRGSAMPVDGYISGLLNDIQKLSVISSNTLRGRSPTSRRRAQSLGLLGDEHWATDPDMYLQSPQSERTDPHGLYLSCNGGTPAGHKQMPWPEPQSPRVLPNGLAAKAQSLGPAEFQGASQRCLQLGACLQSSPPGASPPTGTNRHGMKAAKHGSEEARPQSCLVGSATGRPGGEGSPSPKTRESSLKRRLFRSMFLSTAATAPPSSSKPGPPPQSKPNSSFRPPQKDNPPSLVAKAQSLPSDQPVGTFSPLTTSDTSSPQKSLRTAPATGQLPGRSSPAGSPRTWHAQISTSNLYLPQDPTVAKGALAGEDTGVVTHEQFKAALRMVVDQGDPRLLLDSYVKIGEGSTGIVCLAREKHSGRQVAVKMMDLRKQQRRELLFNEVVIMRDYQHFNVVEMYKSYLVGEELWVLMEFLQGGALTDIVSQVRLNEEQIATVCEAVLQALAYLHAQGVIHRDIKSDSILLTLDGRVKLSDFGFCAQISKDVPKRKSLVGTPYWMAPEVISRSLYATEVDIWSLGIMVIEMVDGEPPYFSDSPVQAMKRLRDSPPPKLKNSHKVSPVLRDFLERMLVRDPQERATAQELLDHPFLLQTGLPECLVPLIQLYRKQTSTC

Question: Which IC50 (Melanocortin receptor 3) does the source give for `CCC(=O)N1CC[C@H](Nc2ncnc3c2CN(c2cnc(OC)c(C(F)(F)F)c2)CC3)C1` [LENIOLISIB] here?
Answer: > 30 µM

Question: How did the % of control [1] turn out when `CNC(=O)Nc1ccc(-c2nc(N3CC4CCC(C3)O4)c3cnn(C4CCC5(CC4)OCCO5)c3n2)cc1` was run?
Answer: 95%

Question: And the % of control [2]?
Answer: 24%

Question: And the % of control [3]?
Answer: 93%

Question: What about the % of control [4] of the same compound?
Answer: 87%

Question: What about the % of control [5] of the same compound?
Answer: 100%

Question: `CCN(CC)CCCCNc1ncc2cc(-c3cc(OC)cc(OC)c3)c(NC(=O)NC(C)(C)C)nc2n1` was tested. Which % of control [6] did it give?
Answer: 21%

Question: `CC[C@@H]1[C@H](F)C(=O)N[C@@H]1COc1nccc2cc(C(N)=O)c(OC)cc12` [ZIMLOVISERTIB] was tested. Which % of inhibition ([7]; at 0.01 µM) did it give?
Answer: 7.9%

Question: And the % of inhibition ([7]; at 0.04 µM)?
Answer: 2%

Question: What about the % of inhibition ([7]; at 0.2 µM) of the same compound?
Answer: -17.6%

Question: And the % of inhibition ([7]; at 1 µM)?
Answer: -0.9%

Question: And the % of inhibition ([7]; at 5 µM)?
Answer: -0.9%

Question: And the % of inhibition [8]?
Answer: -7.3%

Question: What about the % of inhibition [9] of the same compound?
Answer: 8.34%

Question: Which % of control ([10]; at 1 µM) does the source give for `C=CC(=O)Nc1cccc(C(=O)Nc2ccc(Nc3cc(-c4[nH]c(SC)nc4C)ccn3)cc2)c1` here?
Answer: 98%

Question: And the % of control ([10]; at 5 µM)?
Answer: 108%

Question: For `Cc1cc(F)c(C(=O)Nc2cccc(-c3nncn3C(C)C)n2)cc1-n1cnc(C2CC2)c1`, which % of control [11] is on record?
Answer: 90%

Question: With `COc1cc(Nc2nc(C)cc(-c3cnn4nc(OC)ccc34)n2)cc(C(F)(F)F)c1` as the compound, how does the % of control [12] read?
Answer: 75%

Question: And the % of control [13]?
Answer: 100%

Question: With `CC(C)(O)[C@H](F)CN1Cc2cc(NC(=O)c3cnn4cccnc34)c(N3CCOCC3)cc2C1=O` as the compound, how does the dTM [14] read?
Answer: 3.3 K

Question: For `C=CC(=O)Nc1cc(-n2c(=O)ccc3cnc4ccc(-c5ccc(NS(C)(=O)=O)cc5)cc4c32)ccc1C`, which % of control [15] is on record?
Answer: 98%

Question: How did the % of engagement [16] turn out when `C=CC(=O)Nc1ccc(C(=O)Nc2[nH]nc3c2CN(C(=O)N[C@H](CN(C)C)c2ccccc2)C3(C)C)cc1` was run?
Answer: -1.4%

Question: With `Cc1cc(CN)cc(C)c1-c1ncn(C)c1-c1cncn1C` as the compound, how does the dTM [17] read?
Answer: -0.44 K

Question: How did the % binding [18] turn out when `COc1cc(N(C)c2ccnc3ccc(C(F)(F)F)cc23)cc(OC)c1OC` was run?
Answer: 100%

Question: `CCC(=O)N1CCN(c2ccc(-n3c(=O)ccc4cnc5ccc(-c6cnc7ccccc7c6)cc5c43)cc2C(F)(F)F)CC1` was tested. Which % of control [19] did it give?
Answer: 59%

Question: What does the source list for `Cc1cc([C@@H](C)Nc2ccccc2C(=O)O)c2nc(N3CCOCC3)cc(=O)n2c1` [AZD-6482]?
Answer: % of control [20]: 99%; % of control [21]: 94%

Question: `O[C@H]1CC[C@H](Nc2ncc3nc(Nc4c(F)cc(F)cc4F)n([C@H]4CCOC4)c3n2)CC1` was tested. Which % of control [22] did it give?
Answer: 100%

Question: For `N#Cc1cccc(-c2c[nH]c3ncnc(N4CCOCC4)c23)c1`, which % of control [23] is on record?
Answer: 35%
